Data from PMC8780741, “Integration of In Silico, In Vitro and In Situ Tools for the Preformulation and Characterization of a Novel Cardio-Neuroprotective Compound during the Early Stages of Drug Development” (Pharmaceutics, 2022).
In brackets after ≈: the same amount, converted by molar mass. Like-named read-outs stand apart in the source and are kept apart here.

What was measured:
[1] = Thermodynamic solubility, shake-flask saturation method, and dose number; type: physicochemical; conditions: for solubility: USP buffer solution; for Do (dose number): D = 140 mg, 250 mL
Method: For the solubility study, six buffer solutions (pH 1.2, 3.0, 4.0, 4.5, 6.8 and 7.4) were prepared following the protocols published in the USP XXXVIII, United States Pharmacopoeia, as described above.
Solubility experiments for JM-20 were carried out according to the main regulatory guidelines for biowaivers. The tests were performed at the three recommended pH values (pH 1.2, 4.5 and 6.8) as well as pH […], 4.0 and 7.4 (USP buffer formulations). The shake-flask saturation method proposed by Baka et al. was used in the solubility study and the recommendations of Avdeef et al. were followed to improve the quality of the solubility data. The temperature was regulated at 37 °C. Equilibration times were 6 h stirring + 18 h sedimentation. At the end of equilibration, the two phases were separated by careful decantation. The samples were analyzed with a Thermo Fisher UV-Vis Spectrophotometer (λmax = 262 nm). A linear range of 2–20 μg/mL was obtained (r^2 > 0.99). Once the solubility range was determined, the dose number (Do) was calculated following Equation (1) (1) Do=D/Vo/Cs where D is the highest strength or highest dose administered (mg) according to FDA or EMA criteria, Vo is the volume of water ([…]).

[2] = Apparent permeability across MDCK monolayers; type: in vitro ADME, Canine; conditions: dog, 37 °C, stirring at 50 rpm
Method: (§1) MDCK (Madin–Darby Canine Kidney) cells, their transfected clone MDCK-MDR1, and Caco-2 cells were grown in the modified Dulbecco Eagle medium added with L-glutamine, fetal bovine serum and penicillin−streptomycin. The number of cells seeded in transwells with a surface area of 4.2 cm^2 depended on the cell line: 250,000 cells/cm^2 for MDCK and Caco-2 and 150,000 cells/cm^2 for MDCK-MDR1. Experiments were performed between 7 and 9 days for MDCK and MDCK-MDR1 and between 19 and 21 for Caco-2 cells after seeding. Prior to drug placement, cell monolayer integrity was assessed by measuring transepithelial electrical resistance (TEER). Transport studies were performed on an orbital shaker at 37 °C and 50 rpm. Four samples of 200 μL were taken from the receptor side at 0, 15, 30, 60 and 90 min, and two samples from the donor compartment at the beginning and end of the experiment. A standard experiment was performed with the same buffer for the apical and basolateral compartments in the apical to basolateral (A-B) and basolateral to apical (B-A) directions. The drug concentration was 100 μM in all experiments and samples were analyzed immediately by HPLC. The retention time was 2.3 min at maximum wavelengths (λmax = 260 nm). […] The lower limit of quantitation of JM-20 was adequate to interpolate the values obtained in the samples. […]

[3] = Apparent permeability across MDCK-MDR1 monolayers; type: in vitro ADME, Canine; conditions: dog, 37 °C, stirring at 50 rpm
Method: as §1

[4] = molecular target: T1, P-glycoprotein transporter (MDR1) (Homo sapiens, UniProt P08183); experiment: P-glycoprotein substrate assessment (B-A permeability MDCK-MDR1 vs MDCK); type: in vitro ADME; conditions: B-A permeability higher in MDCK-MDR1 than in MDCK (p < 0.05)
T1 construct: expressed in transfected cells; host or cells: MDCK-MDR1 (transfected clone of Madin-Darby Canine Kidney cells)
T1 sequence (P08183 whole entry): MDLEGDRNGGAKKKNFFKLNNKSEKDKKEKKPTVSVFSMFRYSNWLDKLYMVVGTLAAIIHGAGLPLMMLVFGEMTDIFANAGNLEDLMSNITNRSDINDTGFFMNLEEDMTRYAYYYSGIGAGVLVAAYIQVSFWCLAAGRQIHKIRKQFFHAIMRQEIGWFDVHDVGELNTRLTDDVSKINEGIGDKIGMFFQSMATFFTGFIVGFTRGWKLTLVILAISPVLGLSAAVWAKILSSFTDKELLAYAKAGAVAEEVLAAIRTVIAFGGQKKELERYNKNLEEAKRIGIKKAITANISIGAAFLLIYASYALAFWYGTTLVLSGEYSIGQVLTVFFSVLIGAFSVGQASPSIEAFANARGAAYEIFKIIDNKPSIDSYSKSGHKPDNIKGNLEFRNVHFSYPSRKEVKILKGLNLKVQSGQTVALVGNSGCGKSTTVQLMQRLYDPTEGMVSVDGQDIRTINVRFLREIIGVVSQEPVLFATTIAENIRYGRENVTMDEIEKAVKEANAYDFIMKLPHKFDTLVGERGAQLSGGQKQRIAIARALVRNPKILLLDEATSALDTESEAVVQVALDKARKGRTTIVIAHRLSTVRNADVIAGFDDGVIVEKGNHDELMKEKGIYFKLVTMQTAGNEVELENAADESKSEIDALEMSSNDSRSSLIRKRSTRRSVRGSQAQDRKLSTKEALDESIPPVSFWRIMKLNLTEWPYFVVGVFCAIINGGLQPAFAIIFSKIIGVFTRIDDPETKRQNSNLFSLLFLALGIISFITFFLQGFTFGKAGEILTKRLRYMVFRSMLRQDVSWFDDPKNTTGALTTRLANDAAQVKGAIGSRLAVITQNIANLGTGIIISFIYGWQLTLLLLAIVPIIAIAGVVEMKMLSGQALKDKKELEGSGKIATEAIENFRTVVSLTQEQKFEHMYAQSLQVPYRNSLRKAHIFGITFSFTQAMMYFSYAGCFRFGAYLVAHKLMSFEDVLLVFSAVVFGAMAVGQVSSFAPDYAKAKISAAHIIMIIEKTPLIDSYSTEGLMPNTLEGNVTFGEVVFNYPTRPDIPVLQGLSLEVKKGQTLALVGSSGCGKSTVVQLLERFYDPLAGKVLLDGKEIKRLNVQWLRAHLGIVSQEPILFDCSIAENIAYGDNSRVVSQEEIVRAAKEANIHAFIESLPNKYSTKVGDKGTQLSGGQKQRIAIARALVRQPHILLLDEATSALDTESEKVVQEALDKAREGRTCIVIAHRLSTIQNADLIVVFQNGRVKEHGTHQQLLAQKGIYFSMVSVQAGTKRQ
Method: as §1

[5] = design: method as in earlier work; conditions: potentiometric titration; cited from earlier work
[6] = design: method as in earlier work; conditions: pH 4.5 and 6.8, 24 h, 37 ± 1°C; cited from earlier work
[7] = design: method as in product owner (technical report); conditions: ref product owner (technical report); cited from earlier work

CCOC(=O)C1=C(C)NC2=C(C=Nc3ccccc3N2)C1c1ccccc1[N+](=O)[O-] (centres unmarked) [JM-20, 3-ethoxycarbonyl-2-methyl-4-(2-nitrophenyl)-4,11-dihydro-1H-pyrido [2,3-b][1,5] benzodiazepine]
solubility ([1]; aqueous buffer, thermodynamic from solid, buffer pH 1.2, 37 °C, shake-flask, read-out: Solubility ± SD): 9.18 ± 0.16 µg/mL (≈ 22.7 µM) | solubility ([1]; aqueous buffer, thermodynamic from solid, buffer pH 3.5, 37 °C, shake-flask, read-out: Solubility ± SD): 12.7 ± 0.83 µg/mL (≈ 31.5 µM) | solubility ([1]; aqueous buffer, thermodynamic from solid, buffer pH 4.0, 37 °C, shake-flask, read-out: Solubility ± SD): 25.4 ± 0.66 µg/mL (≈ 62.8 µM) | solubility ([1]; aqueous buffer, thermodynamic from solid, buffer pH 4.5, 37 °C, shake-flask, read-out: Solubility ± SD): 30.8 ± 1.29 µg/mL (≈ 76.3 µM) | solubility ([1]; aqueous buffer, thermodynamic from solid, buffer pH 6.8, 37 °C, shake-flask, read-out: Solubility ± SD): 11.3 ± 0.69 µg/mL (≈ 27.9 µM) | solubility ([1]; aqueous buffer, thermodynamic from solid, buffer pH 7.4, 37 °C, shake-flask, read-out: Solubility ± SD): 12.6 ± 0.36 µg/mL (≈ 31.3 µM) | solubility ([1]; pH 1.2, acidic pH, read-out: Solubility at acidic pH (abstract)): 9.18 ± 0.16 µg/mL (≈ 22.7 µM) | Dose number (Do) ([1]; at the different pH values, dose 140 mg): greater than 1 | D0 (dose number) ([1]; calculated with the lowest aqueous solubility): 61 | Do (dose number) ([1]; pH 1.2): 61.00 | Do (dose number) ([1]; pH 3.5): 44.03 | Do (dose number) ([1]; pH 4.0): 22.06 | Do (dose number) ([1]; pH 4.5): 18.16 | Do (dose number) ([1]; pH 6.8): 49.56 | Do (dose number) ([1]; pH 7.4): 44.30 | Papp A→B at 90 min, 100 µM [2]: 24.6 ± 1.1 ×10⁻⁶ cm/s | Papp B→A at 90 min, 100 µM [2]: 2.8 ± 7.1 ×10⁻⁶ cm/s | Papp A→B at 90 min, 100 µM [3]: 21.7 ± 2.2 ×10⁻⁶ cm/s | Papp B→A at 90 min, 100 µM [3]: 9.6 ± 0.5 ×10⁻⁶ cm/s | Substrate of the P-glycoprotein transporter (MDR1) [4]: substrate of the P-glycoprotein transporter (MDR1) | pKa [5]: 5.25 | Qualitative stability in aqueous medium [6]: some degradation | Stability in DMSO and absolute ethanol [7]: stable
